A short description of series [1]: Superoxide scavenging activity (xanthine oxidase system, cytochrome c reduction). It counts as biochemical. From the text:
Reactive oxygen species generated by activated inflammatory cells (endogenous or exogenous) create specific oxidant which was used to provide the measurements of superoxide scavenging activity. The assay used for evaluation of superoxide scavenging activity relates to the one form of antioxidant activity, which is of benefit in neutralizing the damage associated with oxidation. To generate superoxide anions in high yield and in a controlled fashion, an enzymatic system (xanthine oxidase) was used. The conversion of […] by this enzyme generates amounts of superoxide anions, which are stoichiometric with the amount of substrate provided. The assay used was based on the reduction of cytochrome c from its ferric to ferrous form as a sensitive measure of superoxide levels. […] Method 7: Method for Determination of Superoxide Scavenging Activity. The enzymatic system, which uses xanthine oxidase (a purified enzyme preparation produced by “Sigma”), was used to generate superoxide anions in high yield and in a controlled fashion. The conversion of xanthine to hydroxanthine by this enzyme generates amounts of superoxide anions and reduction of ferricytochrome c to ferrocytochrome c was used as a sensitive measure of superoxide levels. […]

Series [2] concerns the target T1, gelatinase B (MMP-9) (Homo sapiens, UniProt P14780).
T1 construct: purchased Amersham Pharmacia
Description: Gelatinase B inhibitory activity (MMP-9 Activity ELISA). The format is biochemical. From the text:
Neutrophils contain two major enzymes from the class of matrix metalloproteinases, which collectively are implicated in extensive connective tissue destruction: neutrophil collagenase (MMP-8) and gelatinase B (MMP-9). Because elastase has poor activity against native collagen, and neutrophil collagenase alone cannot solubilize the connective tissue protein by itself, gelatinase B is considered as a major contributor to inflammatory injury to the extracellular matrix. A specific assay for this enzyme was used to evaluate the potential of cosmetic botanical ingredients to inhibit degradation of the extracellular matrix mediated by inflammatory cell-derived matrix metalloproteinases. Gelatinase B activity was detected by hydrolysis of a low molecular weight synthetic substrate (APMA). Inhibitors of gelatinase B diminish the accelerating rate of enzyme reaction product formation in a dose-dependent fashion. Such enzyme inhibition was found when tested cosmetic ingredients were added to the reaction mixture. Method 6: Method for Determination of Gelatinase B Inhibitory Activity. […] The enzymatic activity was detected at 405 nm by hydrolysis of a low molecular weight synthetic substrate for Gelatinase B: APMA. […]

Series [3] relates to 3T3 fibroblasts. Description: Neutral red uptake (NRU) cytotoxicity test. It counts as cell-based. On the set-up: key to Cell Morphology: NCM: Normal Cell Morphology; MLT: Moderate Level of Toxicity. The text has this:
As an example, a test involving neutral red uptake (NRU) by 3T3 fibroblasts, which is commonly used for determination of cytotoxicity, was utilized to assess cytotoxicity of cosmetic botanical ingredients. The NRU value is proportional to the number of viable cells in this in vitro test population.

Usually IC50 stands for the concentration that inhibits the measured activity by half.

Converted amounts (≈) assume the structure as drawn. Bounds are passed on as bounds.

T1 sequence (P14780 94-707): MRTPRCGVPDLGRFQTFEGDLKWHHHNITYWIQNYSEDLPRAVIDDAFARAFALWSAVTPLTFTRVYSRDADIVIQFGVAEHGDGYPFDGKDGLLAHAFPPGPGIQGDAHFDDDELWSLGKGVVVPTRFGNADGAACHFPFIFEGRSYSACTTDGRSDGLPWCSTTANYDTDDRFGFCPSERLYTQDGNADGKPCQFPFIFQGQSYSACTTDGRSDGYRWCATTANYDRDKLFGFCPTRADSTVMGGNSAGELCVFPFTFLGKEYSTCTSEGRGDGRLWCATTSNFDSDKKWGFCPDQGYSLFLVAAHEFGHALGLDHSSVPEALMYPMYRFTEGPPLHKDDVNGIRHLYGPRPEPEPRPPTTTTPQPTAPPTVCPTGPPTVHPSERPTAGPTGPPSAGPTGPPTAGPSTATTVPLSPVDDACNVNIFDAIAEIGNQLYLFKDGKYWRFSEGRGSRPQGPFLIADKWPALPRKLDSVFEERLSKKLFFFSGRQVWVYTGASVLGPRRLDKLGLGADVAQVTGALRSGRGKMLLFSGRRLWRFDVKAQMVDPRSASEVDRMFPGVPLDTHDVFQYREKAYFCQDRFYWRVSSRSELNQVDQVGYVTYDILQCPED

For the compound `O=C(/C=C/c1ccc(O)c(O)c1)O[C@H](Cc1ccc(O)c(O)c1)C(=O)O` [Rosmarinic Acid, rosmarinic acid], in series [1] (Table 29), the ICR50 amounted to 26.5 μg Dry Matter/mL. Besides, the “IC50 (superoxide scavenging activity)” value in series [1] (Tables 35 and 36) came out at 26.5 µg/mL (≈ 73.5 µM). Further, the 50% inhibitory concentration (IC50) in series [2] is 83.3 µM. In addition, in series [2] (read-out: % Inhibition [100 μg/ml]), the inhibition at 100 µg/mL worked out at 91%.
As for “EGF: Epidermal Growth Factor (EGF) used as a positive control”, the “NRU50 of positive control” value in series [3] is recorded as > 2,500 μg/ml. The “Cell Morphology” value was “NCM” in series [3] (Table 27) and “NCM” in series [3] (Table 28, marigold flower products). For the same compound, the NRU50 in series [3] (Tables 27 and 28) is >2,500 μg Dry Matter/mL.
